Assay results published in US8215314B2, “Photochemical tissue bonding” (The General Hospital Corporation, priority 2000, dated 2012).

Tests used:
[1] = system: rabbit (New Zealand White) corneas; experiment: In vivo PTB of 3.5-mm corneal incisions, incisional bursting pressure; settings: 1.5 mM RB
Description: (§1) PTB was performed in vivo in New Zealand rabbits to repair two types of corneal wounds.
In group I 3.5-mm incisions were performed in 20 rabbit (New Zealand White) corneas. Dose and laser irradiance were varied in subgroups of five or more eyes for each condition and appropriate control eyes. Photoactivation was performed with a 514 nm Argon Laser. Wound leak and incisional bursting pressure of the treated and untreated rabbit eyes was determined in vivo, with the animals under anesthetic.
Group I wounds were healed using, e.g., 191 J/cm2, applying 1.5 mM RB. The immediate in vivo bursting pressure was 495±10 mm Hg for PTB treated eyes. Under the same conditions the values of the busting pressure in the control eye varied from 15 to 60 mm Hg. One day after surgery, the bursting pressure was the same for PTB treated eyes and control eyes (approximately 450±125 mmHg). At 14 days, the bursting pressure exceeded 500 mm Hg in both PTB-treated and control eyes.

rabbit corneas = experiment: In vivo PTB of 6-mm penetrating keratoplasty incisions anchored by sutures, bursting pressure; settings: 1% Rose Bengal, 191 J/cm2, 6-mm PK incision with 4-16 sutures
Description: as §1
In Group II, 6-mm Penetrating Keratoplasy (PK) incisions anchored by 4-16 sutures were performed in 16 rabbit corneas. Half of the corneas in each group underwent PTB where 1% Rose Bengal dye was applied to the wound edges followed by laser irradiation at fluence of 191 J/cm2. Photoactivation was performed with a 514 nm Argon Laser and a 532-nm CW Nd: YAG laser. Wound leak and incisional bursting pressure were determined in vivo in the immediate postoperative period.

[2] = Absorption maxima and absorption coefficients of photosensitizers; assay type: physicochemical
Text: The photosensitizers were used as received with the exception of N-HPT which was recrystallized twice from aqueous ethanol before use.

[3] = system: epidermal cells of skin grafts; experiment: Trypan blue exclusion assay of epidermal cells from skin grafts after PTB; assay type: cell-based, mini pigs; settings: 0.1% RB
Description: The cell viability in the skin grafts was further assessed quantitatively by trypan blue exclusion assay. The upper grafts were chosen to be examined because they absorbed more light, and therefore would be damaged to a greater extent, if any, than the lower ones. Following irradiation, the upper skin grafts were incubated with 1 mg/ml dispase (Life Technologies, Rockville, Md.) in PBS overnight at 4° C. The epidermis was gently peeled off from the dermis and washed twice in PBS. Epidermal cells were released by incubating the epidermis with 0.25% trypsin-EDTA (Cellgro) at 37° C. for 15 minutes, accompanied by gentle agitation. Fetal calf serum (FCS) was added to inhibit trypsin activity and the cell suspension was then centrifuged at 2500 rpm for 10 mins. The cell pellet was washed once and re-suspended in PBS. The trypan blue exclusion assay was performed after mixing equal volumes of cell suspension and 0.2% (w/v) trypan blue and loading onto a hemocytometer. The number of viable cells released from each skin graft was calculated. After preparing a single cell suspension from intact epidermis, the cell viability was assessed (FIG. 11).

[4] = system: partial thickness skin grafts; experiment: Skin graft adherence after PTB, ex vivo (tensiometer); parameters: species or system mini pigs; settings: RB concentration 0.1% (w/v) among 0, 0.01, 0.1, 1%
Text: To test the ability of PTB to quickly and effectively bond skin grafts to a wound site, an ex vivo model utilizing mini pigs was developed. The use of porcine models in wound healing is well known by those skilled in the art. The similarities between porcine wound healing and that of humans enable one to extrapolate the therapeutic results obtained in a porcine model system to a therapeutic result in humans.
Partial thickness skin grafts of approximately 0.020 inch (corresponding to the thick partial-thickness grafts used in clinical situation) were harvested from mini pigs (2 to 7 months old, weight 15 to 43 kgs) after euthanasia. The grafts were temporarily stored by wrapping the graft around gauze, which was soaked in phosphate buffered saline (PBS). […]
The grafts were irradiated using a continuous-wave (CW) argon-ion laser (Innova 100; Coherent, Palo Alto, Calif.) at 514.5 nm. […] The irradiance of laser applied was 0.56 and 1.68 W/cm^2 while the dose-dependent response of the laser fluence from 126 to 504 J/cm^2 was determined. […]
Following the irradiation, the adherence of the skin grafts was tested utilizing a tensiometer (Chartillon) coupled to a force transducer (DFA2, Ametek). The applied force versus the displacement of the force plate was acquired through the transducer and recorded by computer software (Labview 4.0, National Instrument). […]

In the case of `O=C([O-])c1c(Cl)c(Cl)c(Cl)c(Cl)c1-c1c2cc(I)c(=O)c(I)c-2oc2c(I)c([O-])c(I)cc12.[Na+].[Na+]` [Rose Bengal], the “immediate in vivo bursting pressure” value ([1]; 191 J/cm2, 514 nm, 3.5-mm incision) is reported as 495±10 mm Hg, the “bursting pressure at 14 days” value ([1]; 191 J/cm2, also in control eyes) is reported as “exceeded 500 mm Hg” and the “bursting pressure one day after surgery” value ([1]; 191 J/cm2, same as control eyes) is reported as “approximately 450±125 mmHg”. The immediate bursting pressure (rabbit corneas) was 410±70 mm Hg, the absorption maximum [2] was 550 nm and the “absorption coefficient at the laser wavelength used” value ([2]; RB at 514 nm, Fl at 488 nm, MB at 661 nm, R-5-P at 488 nm, N-HPT at 351 nm) was 33000 dm^3 mol^−1 cm^−1. For the same compound, the “number of viable cells per skin graft vs control” value ([3]; 0.56 W/cm^2, 126, 252 and 504 J/cm^2) was “not significantly different”, the “number of viable cells relative to control group” value ([3]; 504 J/cm^2) was about 80% and the “skin graft adherence levels” value [4] was “optimal increase”.
